# Measurements as given in PubChem BioAssay (NCI).
#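 Tested at 5 concentrations; 48 h exposure; 96-well plates; endpoints linearly interpolated, else capped at highest concentration. TGI marks complete inhibition of growth.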
# Assays:
# Assay in all cases: NCI-60 cell line screen, 48 h
# MDA-MB-231 breast = tested on: MDA-MB-231 breast
# OVCAR-4 ovarian = tested on: OVCAR-4 ovarian
# A498 renal = tested on: A498 renal
# NCI-H226 lung = tested on: NCI-H226 lung
# HCT-116 colon = tested on: HCT-116 colon
# MDA-N = tested on: MDA-N
# CCRF-CEM leukemia = tested on: CCRF-CEM leukemia
# U251 CNS = tested on: U251 CNS
# HS 578T breast = tested on: HS 578T breast
# MOLT-4 leukemia = tested on: MOLT-4 leukemia
# 786-0 renal = tested on: 786-0 renal
# OVCAR-5 ovarian = tested on: OVCAR-5 ovarian
# SR leukemia = tested on: SR leukemia
# MCF7 breast = tested on: MCF7 breast
# HOP-18 NSCLC = tested on: HOP-18 NSCLC
# NCI-H23 lung = tested on: NCI-H23 lung
# SK-OV-3 ovarian = tested on: SK-OV-3 ovarian
# NCI/ADR-RES ovarian = tested on: NCI/ADR-RES ovarian
# CAKI-1 renal = tested on: CAKI-1 renal
# DLD-1 colon = tested on: DLD-1 colon
# UACC-62 melanoma = tested on: UACC-62 melanoma
# IGROV1 ovarian = tested on: IGROV1 ovarian
# DMS 273 small cell lung = tested on: DMS 273 small cell lung
# SK-MEL-2 melanoma = tested on: SK-MEL-2 melanoma
# SNB-75 CNS = tested on: SNB-75 CNS
# SF-295 CNS = tested on: SF-295 CNS
# SF-539 CNS = tested on: SF-539 CNS
# UO-31 renal = tested on: UO-31 renal
# BT-549 breast = tested on: BT-549 breast
# MALME-3M melanoma = tested on: MALME-3M melanoma
# NCI-H522 lung = tested on: NCI-H522 lung
# RXF 393 renal = tested on: RXF 393 renal
# KM12 colon = tested on: KM12 colon
# ACHN renal = tested on: ACHN renal
# TK-10 renal = tested on: TK-10 renal
# DU-145 prostate = tested on: DU-145 prostate
# HCT-15 colon = tested on: HCT-15 colon
# KM20L2 colon = tested on: KM20L2 colon
# SK-MEL-5 melanoma = tested on: SK-MEL-5 melanoma
# M14 melanoma = tested on: M14 melanoma
# SW-620 colon = tested on: SW-620 colon
# SNB-19 CNS = tested on: SNB-19 CNS
# T-47D breast = tested on: T-47D breast
# UACC-257 melanoma = tested on: UACC-257 melanoma
# OVCAR-8 ovarian = tested on: OVCAR-8 ovarian
# PC-3 prostate = tested on: PC-3 prostate
# HL-60(TB) leukemia = tested on: HL-60(TB) leukemia
# XF 498 CNS = tested on: XF 498 CNS
# HOP-62 NSCLC = tested on: HOP-62 NSCLC
# EKVX NSCLC = tested on: EKVX NSCLC
# LXFL 529 NSCLC = tested on: LXFL 529 NSCLC
# A549 NSCLC = tested on: A549 NSCLC
# K-562 leukemia = tested on: K-562 leukemia
# OVCAR-3 ovarian = tested on: OVCAR-3 ovarian
# SF-268 CNS = tested on: SF-268 CNS
# NCI-H460 lung = tested on: NCI-H460 lung
# SNB-78 CNS = tested on: SNB-78 CNS
# MDA-MB-435 = tested on: MDA-MB-435
# HCC-2998 colon = tested on: HCC-2998 colon
# DMS 114 small cell lung = tested on: DMS 114 small cell lung
# M19-MEL melanoma = tested on: M19-MEL melanoma
# HOP-92 NSCLC = tested on: HOP-92 NSCLC
# SN12C renal = tested on: SN12C renal
# LOX IMVI melanoma = tested on: LOX IMVI melanoma
# HT29 colon = tested on: HT29 colon
# COLO 205 colon = tested on: COLO 205 colon
# SK-MEL-28 melanoma = tested on: SK-MEL-28 melanoma
# RPMI-8226 leukemia = tested on: RPMI-8226 leukemia
smiles,measurement,setting,value
O=C1C=CC(=O)c2c(O)ccc(O)c21,TGI,MDA-MB-231 breast,6.64 µM
same,TGI,OVCAR-4 ovarian,4.97 µM
same,TGI,A498 renal,7.78 µM
same,TGI,NCI-H226 lung,18.5 µM
same,TGI,HCT-116 colon,2.39 µM
same,TGI,MDA-N,8.18 µM
same,TGI,CCRF-CEM leukemia,0.966 µM
same,TGI,U251 CNS,14.8 µM
same,TGI,HS 578T breast,6.57 µM
same,TGI,MOLT-4 leukemia,4.45 µM
same,TGI,786-0 renal,2.55 µM
same,TGI,OVCAR-5 ovarian,13.1 µM
same,TGI,SR leukemia,1.75 µM
same,TGI,MCF7 breast,6.59 µM
same,TGI,HOP-18 NSCLC,2.17 µM
same,TGI,NCI-H23 lung,7.39 µM
same,TGI,SK-OV-3 ovarian,27.5 µM
same,TGI,NCI/ADR-RES ovarian,3.72 µM
same,TGI,CAKI-1 renal,2.82 µM
same,TGI,DLD-1 colon,0.891 µM
same,TGI,UACC-62 melanoma,3.95 µM
same,TGI,IGROV1 ovarian,15.5 µM
same,TGI,DMS 273 small cell lung,7.55 µM
same,TGI,SK-MEL-2 melanoma,17.4 µM
same,TGI,SNB-75 CNS,6.98 µM
same,TGI,SF-295 CNS,16.1 µM
same,TGI,SF-539 CNS,5.84 µM
same,TGI,UO-31 renal,4.69 µM
same,TGI,BT-549 breast,4.8 µM
same,TGI,MALME-3M melanoma,2.39 µM
same,TGI,NCI-H522 lung,1.16 µM
same,TGI,RXF 393 renal,2.02 µM
same,TGI,KM12 colon,13 µM
same,TGI,ACHN renal,2.67 µM
same,TGI,TK-10 renal,2.75 µM
same,TGI,DU-145 prostate,28 µM
same,TGI,HCT-15 colon,1.65 µM
same,TGI,KM20L2 colon,4.97 µM
same,TGI,SK-MEL-5 melanoma,6.08 µM
same,TGI,M14 melanoma,1.32 µM
same,TGI,SW-620 colon,1.1 µM
same,TGI,SNB-19 CNS,16.6 µM
same,TGI,T-47D breast,4.61 µM
same,TGI,UACC-257 melanoma,2.45 µM
same,TGI,OVCAR-8 ovarian,2.05 µM
same,TGI,PC-3 prostate,29.5 µM
same,TGI,HL-60(TB) leukemia,0.831 µM
same,TGI,XF 498 CNS,3.07 µM
same,TGI,HOP-62 NSCLC,19.3 µM
same,TGI,EKVX NSCLC,7.4 µM
same,TGI,LXFL 529 NSCLC,1.64 µM
same,TGI,A549 NSCLC,33.1 µM
same,TGI,K-562 leukemia,> 25 µM
same,TGI,OVCAR-3 ovarian,5.87 µM
same,TGI,SF-268 CNS,8.39 µM
same,TGI,NCI-H460 lung,9.79 µM
same,TGI,SNB-78 CNS,6.37 µM
same,TGI,MDA-MB-435,13.1 µM
same,TGI,HCC-2998 colon,10.5 µM
same,TGI,DMS 114 small cell lung,5.27 µM
same,TGI,M19-MEL melanoma,1.49 µM
same,TGI,HOP-92 NSCLC,3.21 µM
same,TGI,SN12C renal,3.08 µM
same,TGI,LOX IMVI melanoma,3.8 µM
same,TGI,HT29 colon,5.68 µM
same,TGI,COLO 205 colon,1.66 µM
same,TGI,SK-MEL-28 melanoma,2.76 µM
CNc1ccc(/C=C2\C=Cc3ccccc32)cc1,TGI,OVCAR-4 ovarian,> 100 µM
same,TGI,A498 renal,96.8 µM
same,TGI,NCI-H226 lung,57.3 µM
same,TGI,HCT-116 colon,> 100 µM
same,TGI,CCRF-CEM leukemia,> 100 µM
same,TGI,U251 CNS,> 100 µM
same,TGI,MOLT-4 leukemia,> 100 µM
same,TGI,786-0 renal,> 100 µM
same,TGI,OVCAR-5 ovarian,45 µM
same,TGI,SR leukemia,> 100 µM
same,TGI,HOP-18 NSCLC,55.2 µM
same,TGI,NCI-H23 lung,57.7 µM
same,TGI,SK-OV-3 ovarian,> 100 µM
same,TGI,CAKI-1 renal,> 100 µM
same,TGI,DLD-1 colon,> 100 µM
same,TGI,UACC-62 melanoma,71.9 µM
same,TGI,IGROV1 ovarian,> 100 µM
same,TGI,DMS 273 small cell lung,71.3 µM
same,TGI,SK-MEL-2 melanoma,42 µM
same,TGI,SF-295 CNS,99 µM
same,TGI,SF-539 CNS,> 100 µM
same,TGI,UO-31 renal,30.5 µM
same,TGI,NCI-H522 lung,25.3 µM
same,TGI,RXF 393 renal,> 100 µM
same,TGI,KM12 colon,26.4 µM
same,TGI,ACHN renal,54.5 µM
same,TGI,TK-10 renal,54.6 µM
same,TGI,HCT-15 colon,> 100 µM
same,TGI,KM20L2 colon,35.8 µM
same,TGI,SK-MEL-5 melanoma,54.3 µM
same,TGI,M14 melanoma,36.1 µM
same,TGI,SW-620 colon,> 100 µM
same,TGI,SNB-19 CNS,> 100 µM
same,TGI,UACC-257 melanoma,> 100 µM
same,TGI,OVCAR-8 ovarian,> 100 µM
same,TGI,HL-60(TB) leukemia,> 100 µM
same,TGI,XF 498 CNS,> 100 µM
same,TGI,HOP-62 NSCLC,53.7 µM
same,TGI,EKVX NSCLC,91.1 µM
same,TGI,LXFL 529 NSCLC,> 100 µM
same,TGI,A549 NSCLC,> 100 µM
same,TGI,K-562 leukemia,> 100 µM
same,TGI,OVCAR-3 ovarian,51.9 µM
same,TGI,SF-268 CNS,> 100 µM
same,TGI,NCI-H460 lung,37.9 µM
same,TGI,SNB-78 CNS,> 100 µM
same,TGI,HCC-2998 colon,31.4 µM
same,TGI,DMS 114 small cell lung,44.9 µM
same,TGI,M19-MEL melanoma,> 100 µM
same,TGI,HOP-92 NSCLC,50.9 µM
same,TGI,RPMI-8226 leukemia,> 100 µM
same,TGI,SN12C renal,> 100 µM
same,TGI,LOX IMVI melanoma,24.5 µM
same,TGI,HT29 colon,38.4 µM
same,TGI,COLO 205 colon,33.3 µM
same,TGI,SK-MEL-28 melanoma,> 100 µM
